Key:
[1] = tested on: Truncated N-terminal huntington 150 Q-EGFP-Neuron 2a cells; assay: Measurement of x-Fold (polyglutamine aggregation inhibitory activity); format: cell-based
Procedure: In the present invention, the polyglutamine aggregation inhibitory activity (x-Fold) can be measured, for example, by the method described in the Example.
The number of the aggregated cells, and the total number of cells were counted by Array Scan V T1 (manufactured by Cellomics, Pittuburg, USA), and the ratio of the aggregated cells to the total number of cells was determined (x-Fold). […]

transglutaminase (TGase) = assay: Measurement of TG (TGase inhibitory activity, monodansyl cadaverine / N,N-dimethylcasein fluorescence, FDSS 3000); format: biochemical
Procedure, shortened: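 Compound (1 μL of 10 mM stock) added to 0.1 mL reaction: 100 mM HEPES-NaOH pH 7.5, 1 mM CaCl2, 20 μM monodansyl cadaverine, 0.05 mg/mL N,N-dimethylcasein, 5 μg/mL TGase. Rate of fluorescence change at 340 nm measured; DMSO control set to 100; TG50 is the concentration halving activity.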

[2] = polyglutamine aggregation inhibitory activity, Table 1
[3] = ratio of aggregated cells to total number of cells, compound 20 μM, 20 hr, almost 1 without compound, smaller = stronger inhibition
[4] = TGase activity with compound (10 mM, 1 μL in 0.1 ml enzyme reaction solution), DMSO control taken as 100
[5] = TGase inhibitory activity value, Table 1

TGase activity remaining (% of DMSO control = 100) (transglutaminase (TGase); [4])	TGase activity remaining (% of DMSO control = 100) (transglutaminase (TGase); [5])	SMILES	x-Fold [1, 2]	x-Fold [1, 3]	other results
106	106	OB(Cc1ccc(OCc2ccc(B(O)c3ccccc3)cc2)cc1)Cc1ccc(OCc2ccc(B(O)c3ccccc3)cc2)cc1 [Example 187, bis((4,4′-phenylhydroxyboryl)benzyloxybenzyl)hydroxyborane]	0.97	0.97	
91		CCCNCCOB(c1ccc(C(F)(F)F)cc1)c1ccc(C(F)(F)F)cc1 [Example 188, di(trifluoromethylphenyl) 2-propylaminoethylborinate]		0.98	
119	119	NCCOB(c1ccccc1)c1ccc(COCc2ccc(B(OCCN)c3ccc(COCc4ccc(B(OCCN)c5ccccc5)cc4)cc3)cc2)cc1 [Example 189, bis((4,4′-phenylaminoethoxyboryl)benzyloxybenzyl)aminoethoxyborane]	0.94	0.94	
102	102	FC(F)(F)c1ccc(C(OB(c2ccccc2)c2ccc(COCc3ccc(B(OC(c4ccc(C(F)(F)F)cc4)c4ccccn4)c4ccc(COCc5ccc(B(OC(c6ccc(C(F)(F)F)cc6)c6ccccn6)c6ccccc6)cc5)cc4)cc3)cc2)c2ccccn2)cc1 (stereo not drawn) [Example 192, bis((4,4′-phenyl 2-pyridyl-4-trifluoromethylphenylmethoxyboryl)benzyloxybenzyl) 2-pyridyl-4-trifluoromethyl phenylmethoxyborane]	0.95	0.95	
92	92	NC(=O)C1NCCNC1C(=O)OB(c1ccccc1)c1ccccc1 (stereo not drawn) [Example 193, diphenyl(2-piperazine-3-carboxyamide-carboxy)borane]	1.03	1.03	
106	106	CSCCC(N)C(=O)OB(c1ccccc1)c1ccccc1 (stereo not drawn) [Example 194, diphenyl(methionate-O,N)borane]	1.03	1.03	
115	115	c1ccc(B(ON2CCCCC2)c2cccc(Oc3cccc(B(ON4CCCCC4)c4ccccc4)c3)c2)cc1 [Example 195, di(phenyl 3-piperidinooxyborylphenyl)ether]	0.77	0.77	
117	117	c1ccc(B2OCCN3CCN(CCOB(c4ccccc4)c4ccc(cc4)Oc4ccc2cc4)CC3)cc1 [Example 196, 4,4′-(phenylpiperazino-O,O-ethoxyboryl)phenylether]	0.90	0.90	
28		CN(C)CCOB(c1ccccc1)c1ccc(COCc2ccc(B(OCCN(C)C)c3ccccc3)cc2)cc1 [Example 198, bis(4,4′-(phenyldimethylaminoethoxyboryl)benzyl)ether]		0.8	x-Fold ([1]; polyglutamine aggregation inhibitory activity, Table 1, listed as 3003): 0.8; TGase activity remaining (% of DMSO control = 100) (transglutaminase (TGase); TGase inhibitory activity value, Table 1, listed as 3003): 28
3	3	c1ccc(CNCCOB(c2ccccc2)c2cccc(COCc3cccc(B(OCCNCc4ccccc4)c4ccccc4)c3)c2)cc1 [Example 199, bis(3,3′-(phenylbenzylaminoethoxyboryl)benzyl)ether]	0.90	0.90	
100		Cc1c(Cl)cccc1B(O)c1cccc(Cl)c1C [Example 200, di(3-chloro-2-methylphenyl)borinic acid]		0.92	
99		Cc1ccc(B(O)c2ccc(Oc3ccc(B(O)c4ccc(C)c(Cl)c4)cc3)cc2)cc1Cl [Example 201, 4,4′-di((3-chloro-4-methylphenyl 2-hydroxyboryl)phenyl)ether]		0.57	
91	91	c1ccc(B(OCc2ccccn2)c2cccc3ccccc23)cc1 [Example 202, phenyl naphthyl 2-pyridylmethylborinate]	0.94	0.94	
97	97	CN(C)CCOB(c1ccccc1)c1cccc2ccccc12 [Example 203, phenyl naphthyl dimethylaminoethylborinate]	0.97	0.97	
61	61	c1ccc(CNCCOB(c2ccccc2)c2cccc3ccccc23)cc1 [Example 204, phenyl naphthyl benzylaminoethylborinate]	0.79	0.79	
47	47	NC(COB(c1ccccc1)c1ccc(COCc2ccc(B(OCC(N)Cc3ccccc3)c3ccccc3)cc2)cc1)Cc1ccccc1 (stereo not drawn) [Example 205, bis(4,4′-(phenyl 2-amino-2-benzylethoxyboryl)benzyl)ether]	0.80	0.80	
34		CN(C)CCOB(c1ccccc1)c1cccc(COCc2cccc(B(OCCN(C)C)c3ccccc3)c2)c1 [Example 206, bis(3,3′-(phenyldimethylaminoethoxyboryl)benzyl)ether]		1.14	x-Fold ([1]; polyglutamine aggregation inhibitory activity, Table 1, listed as 3107): 1.14; TGase activity remaining (% of DMSO control = 100) (transglutaminase (TGase); TGase inhibitory activity value, Table 1, listed as 3107): 34
1	1	Cc1ccc(B(OC(CN)c2ccccc2)c2ccc(C)c(Cl)c2)cc1Cl (stereo not drawn) [Example 209, di(3-chloro-4-methylphenyl)1-phenyl 2-aminoethylborinate]	0.98	0.98	
118	118	c1ccc(B(OB(c2ccccc2)c2ccccc2)c2ccccc2)cc1 [Example 217, diphenylborinic acid anhydride]	0.94	0.94	
90	90	O=C(OB(c1ccccc1)c1ccccc1)c1ccccn1 [Example 218, diphenyl(picolinate-O,N)borane]	0.97	0.97	
91	91	Nc1ccccc1C(=O)OB(c1ccccc1)c1ccccc1 [Example 219, diphenyl(2-aminophenyl carboxylate-O,N)borane]	0.88	0.88	
73		Cc1ccc(B(OC(=O)c2ccccn2)c2ccc(C)c(Cl)c2)cc1Cl [Example 221, di(3-chloro-4-methylphenyl)(2-pyridine carboxylate-O,N)borane]		0.94	
112	112	NC(c1ccccc1)C(OB(c1ccccc1)c1ccccc1)c1ccccc1 (stereo not drawn) [Example 224, diphenyl 1-(2-aminobenzyl) 1-phenylmethylborinate]	0.89	0.89	
97	97	CCCCC(N)C(=O)OB(c1ccccc1)c1ccccc1 (stereo not drawn) [Example 226, diphenyl(2-aminohexanecarboxylate-O,N)borane]	0.94	0.94	
110		CCCCC(N)C(=O)OB(c1ccc(C)c(Cl)c1)c1ccc(C)c(Cl)c1 (stereo not drawn) [Example 227, di(3-chloro-4-methylphenyl)(norloysinate-O,N)borane]		0.99	x-Fold ([1]; polyglutamine aggregation inhibitory activity, Table 1, listed as 4130): 0.99; TGase activity remaining (% of DMSO control = 100) (transglutaminase (TGase); TGase inhibitory activity value, Table 1, listed as 4130): 110
99	99	CCC(N)COB(c1ccccc1)c1ccccc1 (stereo not drawn) [Example 228, diphenyl 2-aminobutylborinate]	0.98	0.98	
94		OB(c1ccc(Cl)c(F)c1)c1ccc(Cl)c(F)c1 [Example 231, di(3-fluoro-4-chlorophenyl)borinic acid]		1.01	x-Fold ([1]; polyglutamine aggregation inhibitory activity, Table 1, listed as 4140): 1.01; TGase activity remaining (% of DMSO control = 100) (transglutaminase (TGase); TGase inhibitory activity value, Table 1, listed as 4140): 94
112		CN(C)CCOB(c1ccc(C(F)(F)F)cc1)c1ccc(C(F)(F)F)cc1 [Example 233]		1.12	x-Fold ([1]; polyglutamine aggregation inhibitory activity, Table 1, listed as 4142): 1.12; TGase activity remaining (% of DMSO control = 100) (transglutaminase (TGase); TGase inhibitory activity value, Table 1, listed as 4142): 112
80	80	NCC(CN)OB(c1ccc(Cl)c(F)c1)c1ccc(Cl)c(F)c1 [Example 235]	1.03	1.03	

Reference: patent US8853424B2 (Japan Science and Technology Agency, priority 2008, dated 2014)
